This passage reports MIC results from patent US4404201A, “Cephalosporins” (Warner-Lambert Company, priority 1981, dated 1983).

Common to all, as to assay type: cell-based
One experiment concerns Pseudomonas UI 18. Nature of the experiment: Minimal Inhibitory Concentration, Pseudomonas UI 18. The note with it: UI18, sodium salt.
For a further experiment, the system named is Prot Vulg. The experiment can be described thus: Minimal Inhibitory Concentration, Prot Vulg. The note with it: sodium salt.
For another experiment, the system named is Pseudomonas #28. Nature of the experiment: Minimal Inhibitory Concentration, Pseudomonas #28. The note with it: sodium salt.
The next experiment has as its system Serr. Mar. IMM 16. The experiment can be described thus: Minimal Inhibitory Concentration, Serr. Mar. IMM 16. The note with it: sodium salt.
The subject of another experiment is Pseudomonas BRK 12-4-4. Nature of the experiment: Minimal Inhibitory Concentration, Pseudomonas BRK 12-4-4. The note with it: BRK1244, sodium salt.
For a further experiment, the system named is Entero Cloac. IM 11. Nature of the experiment: Minimal Inhibitory Concentration, Entero Cloac. IM 11. The note with it: sodium salt.
The test system of the next experiment is E. Coli Brig. Nature of the experiment: Minimal Inhibitory Concentration, E. Coli Brig. The note with it: Escherichia coli, sodium salt.
Another experiment concerns Staph UC76. Nature of the experiment: Minimal Inhibitory Concentration, Staph UC76. The note with it: sodium salt.
A further experiment has as its system E. Coli Vogel. The experiment can be described thus: Minimal Inhibitory Concentration, E. Coli Vogel. The note with it: Escherichia coli, sodium salt.
A further experiment has as its system Klebs. Pneum. MGH 2. The experiment can be described thus: Minimal Inhibitory Concentration, Klebs. Pneum. MGH 2. The note with it: sodium salt.
Another experiment relates to Staph S 18713. The experiment can be described thus: Minimal Inhibitory Concentration, Staph S 18713. The note with it: sodium salt.
In another experiment the test system is Strep. fec. MGH 2. Nature of the experiment: Minimal Inhibitory Concentration, Strep. fec. MGH 2. The note with it: sodium salt.

A word on the MIC: it is the least concentration at which growth counts as inhibited. `CC(=O)N[C@@H](C)C(=O)Nc1ccc2[nH]cc(C(=O)N[C@@H](C(=O)NC3C(=O)N4C(C(=O)O)=C(CSc5nnnn5C)CSC34)c3ccccc3)c(=O)c2c1` (stereo partly drawn) [Example 7, N-[6-[[L-2-(Acetylamino)-1-oxopropyl]amino]-1,4-dihydro-4-oxo-3-quinolinylcarbonyl]-7-[D-2-amino-2-phenylacetamido]-3-[[(1-methyl-1H-tetrazol-5-yl)thio]methyl]-3-cephem-4-carboxylic acid]: the MIC in the experiment on Pseudomonas UI 18 was determined as 6.3 µg/mL; with Prot Vulg., 3.1 µg/mL; in the experiment on Pseudomonas #28 it was 6.3 µg/mL; in the experiment with Serr. Mar. IMM 16 it was 25 µg/mL; in the experiment with Pseudomonas BRK 12-4-4, 12.5 µg/mL; in the experiment on Entero Cloac. IM 11 it was 12.5 µg/mL. Besides, the minimum inhibitory concentration (MIC) with E. Coli Brig was 12.5 µg/mL; with Staph UC76, 1.6 µg/mL; with E. Coli Vogel, 1.6 µg/mL; with Klebs. Pneum. MGH 2, 3.1 µg/mL; in the experiment with Staph S 18713 it was 6.3 µg/mL.
As to `CC(=O)N[C@@H](C)C(=O)Nc1ccc2c(=O)c(C(=O)N[C@@H](C(=O)NC3C(=O)N4C(C(=O)O)=C(CSc5nnnn5CS(=O)(=O)O)CSC34)c3ccccc3)c[nH]c2c1` (stereo partly drawn) [Example 1, N-[7-[[L-2-(Acetylamino)-1-oxopropyl]amino]-1,4-dihydro-4-oxo-3-quinolinylcarbonyl]-7-[D-2-amino-2-phenylacetamido]-3-[[(1-sulfomethyl-1H-tetrazol-5-yl)thio]methyl]-3-cephem-4-carboxylic acid], the MIC with Pseudomonas UI 18 was found to be 3.1 µg/mL; in the experiment on Prot Vulg., 0.8 µg/mL; with Pseudomonas #28, 3.1 µg/mL; in the experiment with Serr. Mar. IMM 16 it was 3.2 µg/mL; in the experiment with Pseudomonas BRK 12-4-4, 6.3 µg/mL; in the experiment on Entero Cloac. IM 11, 6.3 µg/mL. Moreover, the MIC was > 50 µg/mL in the experiment with Strep. fec. MGH 2; > 50 µg/mL in the experiment on E. Coli Brig; 6.3 µg/mL in the experiment on Staph UC76; 0.8 µg/mL with E. Coli Vogel; 0.8 µg/mL with Klebs. Pneum. MGH 2; 12.5 µg/mL in the experiment with Staph S 18713.
Regarding `CC(=O)N[C@@H](CCC(N)=O)C(=O)Nc1ccc2c(=O)c(C(=O)N[C@@H](C(=O)NC3C(=O)N4C(C(=O)O)=C(CSc5nnnn5C)CSC34)c3ccc(O)cc3)c[nH]c2c1` (stereo partly drawn) [Example 5, N-[7-[[L-2-(Acetylamino)-5-amino-1,5-dioxopentyl]amino]-1,4-dihydro-4-oxo-3-quinolinylcarbonyl]-7-[D-2-amino-2-(4-hydroxyphenyl)acetamido]-3-[[(1-methyl-1H-tetrazol-5-yl)thio]methyl]-3-cephem-4-carboxylic acid], the MIC in the experiment on Pseudomonas UI 18 stood at 6.3 µg/mL; in the experiment with Prot Vulg., 3.1 µg/mL; with Pseudomonas #28 it was 3.1 µg/mL; in the experiment on Serr. Mar. IMM 16 it was 6.3 µg/mL; in the experiment on Pseudomonas BRK 12-4-4, 6.3 µg/mL; in the experiment with Entero Cloac. IM 11, 3.1 µg/mL. In addition, the MIC was 25 µg/mL in the experiment on Strep. fec. MGH 2; > 50 µg/mL in the experiment on E. Coli Brig; 3.1 µg/mL with Staph UC76; 0.4 µg/mL with E. Coli Vogel; 0.8 µg/mL with Klebs. Pneum. MGH 2; 6.3 µg/mL in the experiment on Staph S 18713.
On to `Cn1nnnc1SCC1=C(C(=O)O)N2C(=O)C(NC(=O)[C@H](NC(=O)c3c[nH]c4cc(NC(=O)[C@@H]5CCC(=O)N5)ccc4c3=O)c3ccccc3)C2SC1` (stereo partly drawn) [Example 6, N-[1,4-Dihydro-4-oxo-7-[[(L-5-oxo-2-pyrrolidinyl)carbonyl]amino]-3-quinolinylcarbonyl]-7-[D-2-amino-2-phenylacetamido]-3-[[(1-methyl-1H-tetrazol-5-yl)thio]methyl]-3-cephem-4-carboxylic acid], for which the MIC worked out at 12.5 µg/mL in the experiment with Pseudomonas UI 18; 6.3 µg/mL in the experiment with Prot Vulg.; 6.3 µg/mL in the experiment on Pseudomonas #28; 25 µg/mL in the experiment on Serr. Mar. IMM 16; 12.5 µg/mL in the experiment with Pseudomonas BRK 12-4-4; 6.3 µg/mL in the experiment with Entero Cloac. IM 11. Besides, the MIC is 6.3 µg/mL in the experiment with E. Coli Brig; 0.8 µg/mL in the experiment on Staph UC76; 0.8 µg/mL in the experiment on E. Coli Vogel; 1.6 µg/mL in the experiment with Klebs. Pneum. MGH 2; 3.1 µg/mL in the experiment on Staph S 18713.
For the compound `CC(=O)N[C@@H](C)C(=O)Nc1ccc2c(=O)c(C(=O)N[C@@H](C(=O)NC3C(=O)N4C(C(=O)O)=C(COC(C)=O)CSC34)c3ccc(O)cc3)c[nH]c2c1` (stereo partly drawn) [Example 3, N-[7-[[L-2-(Acetylamino)-1-oxopropyl]amino]-1,4-dihydro-4-oxo-3-quinolinylcarbonyl]-7-[D-2-amino-2-(4-hydroxyphenyl)acetamido]-3-acetoxymethyl-3-cephem-4-carboxylic acid], the minimum inhibitory concentration (MIC) with Pseudomonas UI 18 turned out to be 3.1 µg/mL; with Prot Vulg., 6.3 µg/mL; in the experiment on Pseudomonas #28 it was 3.1 µg/mL; in the experiment on Serr. Mar. IMM 16 it was 50 µg/mL; in the experiment on Pseudomonas BRK 12-4-4, 6.3 µg/mL; in the experiment on Entero Cloac. IM 11, 12.5 µg/mL. The MIC in the experiment on Strep. fec. MGH 2 was determined as 25 µg/mL; in the experiment with E. Coli Brig, 12.5 µg/mL; in the experiment with Staph UC76, 3.1 µg/mL; in the experiment on E. Coli Vogel, 1.6 µg/mL; in the experiment with Klebs. Pneum. MGH 2, 1.6 µg/mL; with Staph S 18713, 6.3 µg/mL.
Turning to `CC(=O)N[C@@H](CCC(N)=O)C(=O)Nc1ccc2c(=O)c(C(=O)N[C@@H](C(=O)NC3C(=O)N4C(C(=O)O)=C(COC(C)=O)CSC34)c3ccc(O)cc3)c[nH]c2c1` (stereo partly drawn) [Example 4, N-[7-[[L-2-(Acetylamino)-5-amino-1,5-dioxopentyl]amino]-1,4-dihydro-4-oxo-3-quinolinylcarbonyl]-7-[D-2-amino-2-(4-hydroxyphenyl)acetamido]-3-acetoxymethyl-3-cephem-4-carboxylic acid], the MIC in the experiment with Pseudomonas UI 18 is 12.5 µg/mL; in the experiment with Prot Vulg., 6.3 µg/mL; in the experiment with Pseudomonas #28 it was 3.1 µg/mL; in the experiment on Serr. Mar. IMM 16 it was > 50 µg/mL; in the experiment with Pseudomonas BRK 12-4-4 it was 6.3 µg/mL; with Entero Cloac. IM 11, 12.5 µg/mL. The minimal inhibitory concentration (MIC) is 25 µg/mL in the experiment on Strep. fec. MGH 2; > 50 µg/mL in the experiment on E. Coli Brig; 3.1 µg/mL in the experiment with Staph UC76; 0.8 µg/mL with E. Coli Vogel; 3.1 µg/mL in the experiment with Klebs. Pneum. MGH 2; 6.3 µg/mL in the experiment with Staph S 18713.
Regarding `CC(=O)N[C@@H](C)C(=O)Nc1ccc2c(=O)c(C(=O)N[C@@H](C(=O)NC3C(=O)N4C(C(=O)O)=C(CSc5nnnn5C)CSC34)c3ccc(O)cc3)c[nH]c2c1` (stereo partly drawn) [Example 2, N-[7-[[L-2-(Acetylamino)-1-oxopropyl]amino]-1,4-dihydro-4-oxo-3-quinolinylcarbonyl]-7-[D-2-amino-2-(4-hydroxyphenyl)acetamido]-3-[[(1-methyl-1H-tetrazol-5-yl)thio]methyl]-3-cephem-4-carboxylic acid], the MIC is 6.3 µg/mL in the experiment with Pseudomonas UI 18; 3.1 µg/mL with Prot Vulg.; 3.1 µg/mL with Pseudomonas #28; 0.3 µg/mL in the experiment with Serr. Mar. IMM 16; 3.1 µg/mL in the experiment on Pseudomonas BRK 12-4-4; 3.1 µg/mL in the experiment on Entero Cloac. IM 11. Moreover, the minimal inhibitory concentration (MIC) was 25 µg/mL in the experiment with Strep. fec. MGH 2; > 50 µg/mL in the experiment on E. Coli Brig; 3.1 µg/mL in the experiment with Staph UC76; 0.4 µg/mL in the experiment on E. Coli Vogel; 0.4 µg/mL with Klebs. Pneum. MGH 2; 6.3 µg/mL in the experiment on Staph S 18713.
As to `CC(=O)N[C@@H](C)C(=O)Nc1ccc2[nH]c(=O)c(C(=O)N[C@@H](C(=O)NC3C(=O)N4C(C(=O)O)=C(COC(C)=O)CSC34)c3ccc(O)cc3)cc2c1` (stereo partly drawn) [Example 8, N-[6-[[L-2-(Acetylamino)-1-oxopropyl]amino]-1,2-dihydro-2-oxo-3-quinolinylcarbonyl]-7-[D-2-amino-2-(4-hydroxyphenyl)acetamido]-3-acetoxymethyl-3-cephem-4-carboxylic acid], the MIC in the experiment with Pseudomonas UI 18 is 3.1 µg/mL; in the experiment on Prot Vulg. it was 25 µg/mL; with Pseudomonas #28, 3.1 µg/mL; in the experiment on Serr. Mar. IMM 16 it was > 50 µg/mL; with Pseudomonas BRK 12-4-4 it was 6.3 µg/mL; in the experiment on Entero Cloac. IM 11, 25 µg/mL. Further, the MIC is 50 µg/mL in the experiment with E. Coli Brig; 3.1 µg/mL in the experiment with Staph UC76; 6.3 µg/mL in the experiment with E. Coli Vogel; 25 µg/mL in the experiment on Klebs. Pneum. MGH 2; 6.3 µg/mL with Staph S 18713.
